Experimental findings from patent US11491147B2, “Combination drug therapy reduces PARP-1 related DNA repair and increases the efficacy of genotoxic agents” (Indiana University Research and Technology Corporation, priority 2016, dated 2022) are described below.

One test relates to breast cancer patients. The experiment in a line: Retrospective survival analysis of electronic medical records of breast cancer patients. In kind it is in vivo, human. The method, then:
FIG. 16. Retrospective survival analysis of breast cancer patients with or without use of proton pump inhibitors (PPIs). De-identified electronic medical records of 6,752 breast cancer patients were retrieved from the database of Indiana Network for Patient Care (INPC) and subjected to Kaplan-Meier survival analysis in association with PPI usage in all patients (A) or in triple negative breast cancer patient subgroup (B). The p-value and hazard ratio (HR) were calculated from Cox proportional hazard models, which were adjusted for age, tumor stage, and time of first diagnosis.
Because PPIs are widely used for treatment of a variety of acid-related digestive disorders, many cancer patients may use PPIs without the knowledge that the combination of PPIs with their chemotherapy may have helped them. To this end, a retrospective association analysis was conducted using de-identified electronic medical records (EMR) of 6,752 breast cancer patients from Indiana Network for Patient Care (INPC). The average age at diagnosis is 58.9 years (range 19-102) and average age at death or last visit is 61.5 (range 21-104). Of this cohort, 534 patients took one or more PPIs after diagnosis as recorded in the EMR. There are 488 triple negative breast cancer (TNBC) patients, among them 35 used PPIs. Using the Cox proportional hazard regression model, the patient overall survival was analyzed against PPI usage. […] The protective effect of PPIs on patient survival was adjusted for age, tumor stage, and time of first diagnosis.
The patient database contains three domains of electronic medical records (EMR) of 6,752 de-identified breast cancer patients from Indiana Network for Patient Care (INPC). The first domain contains patient characteristics as shown in Supplemental Table 51. The second domain contains medical test results including body weight, blood tests, and office visit information. The third domain contains prescription information for each patient. The use of this database has been approved by IRB at Indiana University for this study.
The first task is to remove null and duplicated values and to resolve contradicting records. For patients that have contradicting records, different rules for different conflicts were followed. For conflicts on the first visit or diagnosis time, the earlier record at younger age were used as the first diagnosis and considered the later one as system update. For all other information including diagnosis information such as cancer subtype, the latest record was used as it is thought to be more accurate.
Next, the plain text information from the first domain of the database including but not limited to ER, PR, and HER2 test results, treatment plans, and therapy types were digitized. The record that is not clear was marked as unknown. For example, the HER2 status with a 2+ score, a borderline score, from IHC staining was usually confirmed with FISH test. Patients with a 2+ score but without a FISH test result were considered unknown in this study.
Further, the days of patient survival from data in the first domain were validated using prescription history of the same patient in the third domain of the database. When there is a conflict, the last day of office visit or prescription refill, whichever is later, was recorded as the last day of visit or death. Moreover, patients who took PPIs prior to their diagnosis of breast cancer but stopped taking them after diagnosis were considered non-PPI users in this study.

A further test has as its system breast cancer cell lines. As to the kind of experiment: Survival of breast cancer cell lines, methylene blue staining assay (FIG. 24). As to conditions: for activity in suppressing breast cancer cell survival, compared with lansoprazole: lansoprazole metabolites, MCF7, MDA-MB-231, MDA-MB-468 cells; for performance against breast cancer cell lines, compared with lansoprazole: non-FDA-approved PPIs, different breast cancer cell lines. The test is classed as cell-based, human. From the text: (§1) FIG. 24. […] Actin was used as a loading control. D. effect of non-approved PPIs on the survival of breast cancer cell lines.

A further test concerns M/FASN cells. As to the kind of experiment: MTT survival assay, M/FASN cells. In kind it is cell-based, human. The method, then:
FIG. 5. PARP-1 mediates FASN-associated DNA repair and genotoxic treatment resistance. A-B, Effect of FASN on PARP-1 expression as determined by Western blot (A) and real-time RT-PCR (B) in stable FASN-over-expressing and -knockdown cells. C, Effect of FASN on IR-induced histone-H3 PARylation. Cells were pre-treated without or with 0.5 μM olaparib followed by treatment with or without IR and harvested at different times following IR for lysate preparation, immunoprecipitation of histone-H3 in the presence of 100 μM PARG inhibitor, gallotannin, and Western blot analyses of PARylated and total histone H3. D, Effect of PARP-1 knockdown on FASN-induced NHEJ up-regulation. FASN-over-expressing (P/FASN) and the control (P/Vec) cells were transiently transected with PARP-1 or scrambled control siRNA followed by Western blot analysis of PARP-1 (left panel) and NHEJ activity assay (right panel) (n=3, *p<0.05; **p<0.01). E, Effect of PARP-1 inhibition on survival. M/FASN cells were treated with 1 mM 3-ABA, 0.5 μM olaparib, or their vehicle control for 48 hours followed by MTT assay. F, Effect of PARP-1 inhibition on doxorubicin resistance. M/FASN cells were pre-treated for 6 hours by 1 mM 3-ABA, 0.5 μM olaparib, or transfected with control or PARP-1 siRNA followed by tested doxorubicin resistance using MTT survival assay. (n=3-4, *p<0.05, **p<0.01).
To determine if FASN enhancement of PARP-1 likely mediates FASN function in cellular resistance to DNA damages, a survival assay of […] cells following doxorubicin treatment in the absence or presence of PARP-1 inhibitors, 3-ABA (3-aminobenzamide) or olaparib was carried out. Now referring to FIG. 5E, either 1 mM 3-ABA or 0.5 μM olaparib alone had no effect on M/FASN cell survival.
MTT survival assay was performed as previously described (see e.g., Yang Y, Chen Q, & Zhang J T (2002) Structural and functional consequences of mutating cysteine residues in the amino terminus of human multidrug resistance-associated protein 1. J. Biol. Chem. 277(46):44268-44277). Briefly, cells in 96-well plate were cultured for 24 hours and treated with various concentrations of doxorubicin, bleomycin, cisplatin or H2O2 continuously for 3 days followed by addition of thiazolyl blue tetrazolium bromide (MTT) to a final concentration of 0.5 mg/mL and incubation at 37° C. for 4 hours. Medium was then removed and formazan was solubilized in dimethyl sulfoxide and the OD570 was measured by a Synergy H1 hybrid reader (BioTek, Winooski, Vt.). IC50's were obtained from the fitted curves generated by GraphPad Prism 5.0 program (GraphPad Software, Inc.). Relative resistance factor (RRF) is calculated using the formula RRF=IC50 (test)/IC50 (control) with control normalized as 1. […]

In another test the test system is PARP1 and γ-H2AX. The experiment in a line: Western blot of PARP1 and γ-H2AX (FIG. 24C). In kind it is cell-based. As to conditions: dose-dependent. The method, then: as §1
Cells were harvest and then lysed in TNN buffer with 1 mM DTT, 1 mM PMSF and 0.1% SDS for 30 min at 4° C. with occasional agitation. The cells were sonicated briefly and total proteins were harvested after centrifugation of the lysate at 16,000 g for 15 minutes at to remove cell debris. The protein concentration of cell lysates was determined using a Bio-Rad protein assay kit. Total cell lysates were then separated by SDS-PAGE, transferred to a polyvinylidene fluoride membrane, and probed using antibodies against fatty acid synthase (610963, BD biosciences), PARP-1 (46D11, CST), γ-H2AX (05-636, Millipore), and (3-Actin (A2228, Sigma). The blot was then probed with horseradish peroxidase-conjugated secondary antibodies (Sigma) and signals were captured on X-ray films following developing with Amersham ECL Western Blotting Detection Reagent (RPN2106, GE).
A general note: In western blotting, separated proteins are transferred to a membrane and probed.

The next test has as its system MCF7 cells. The experiment in a line: Colony formation survival assay, MCF7 cells. The test is classed as cell-based, human. As to conditions: Homo sapiens. The procedure: FIG. 15. […] B. Combination index. Combination index (CI) was derived using the data shown in A and the formula: […]
For each potency ratio, combination index of three effective concentrations at IC30, IC50, and IC70 were calculated for synergistic effects using Prism 7.0.
Cells were then harvested and re-plated in 6-well plates at a density of 200 cells/well followed by IR treatment at different doses and colony formation assay or collection of cells for Western blot analysis. Concentration-response curves and IC50 values were calculated using Prism 7.0 (GraphPad, La Jolla, USA).

The mark [1] stands for this setting: pairwise versus Lansoprazole users, all patients.
[2] abbreviates: pairwise versus Omeprazole users, all patients.
[3] abbreviates: pairwise versus Pantoprazole users, all patients.
Where [4] appears, read: single-PPI users versus No PPI, all breast cancer patients.
Where [5] appears, read: versus Lansoprazole, AA patients.
Setting [6] is: versus Lansoprazole, CA patients.
Where [7] appears, read: versus No PPI, African American (AA) patients.
Setting [8] is: versus No PPI, Caucasian (CA) patients.
Where [9] appears, read: versus Pantoprazole, CA patients.

Where two headings read alike, the source gives them in different places.

For the compound `COc1ccc2nc([S@@+]([O-])Cc3ncc(C)c(OC)c3C)[nH]c2c1` [Esomeprazole, esomeprazole], the “HR (CoxPH ratio), overall survival” value with breast cancer patients (setting [1]) worked out at 2.57; in the test on breast cancer patients (setting [2]) it was 1.6; in the test with breast cancer patients (setting [3]) it was 1.44; in the test on breast cancer patients (pairwise versus Rabeprazole users, all patients), 0.92; in the test with breast cancer patients (setting [4]), 0.44. Besides, the “HR, overall survival” value was 7.79*10^7 in the test on breast cancer patients (setting [5]); 1.74 in the test on breast cancer patients (setting [6]); 0.49 in the test with breast cancer patients (setting [7]); 0.35 with breast cancer patients (setting [8]); 1.47 in the test with breast cancer patients (versus Omeprazole, AA patients); 0.84 with breast cancer patients (versus Pantoprazole, AA patients). The “HR, overall survival” value in the test on breast cancer patients (setting [9]) was found to be 2.08; in the test on breast cancer patients (versus Rabeprazole, CA patients), 0.66.
For the compound `Cc1c(OCC(F)(F)F)ccnc1CS(=O)(=O)c1nc2ccccc2[nH]1` [lansoprazole sulfone], the “activity in suppressing breast cancer cell survival, compared with lansoprazole” value (from here on “activity … compared with lansoprazole”) with breast cancer cell lines is on record as “lost their activity”.
Turning to `COCCCOc1ccnc(C[S+]([O-])c2nc3ccccc3[nH]2)c1C` (stereo not shown) [rabeprazole], the “HR (CoxPH ratio), overall survival” value is on record as 2.13 in the test with breast cancer patients (setting [1]), 1.50 with breast cancer patients (setting [2]), 1.43 with breast cancer patients (setting [3]) and 0.47 with breast cancer patients (setting [4]). Further, the “HR, overall survival” value turned out to be 1.99 in the test with breast cancer patients (setting [6]); 0.5031 in the test on breast cancer patients (setting [8]); 1.77 with breast cancer patients (versus Omeprazole, CA patients); 2.57 in the test with breast cancer patients (setting [9]).
Turning to `Cc1c(OCC(F)(F)F)ccnc1C[S+]([O-])c1nc2ccc(O)cc2[nH]1` (stereo not shown) [5-hydroxy lansoprazole], the “activity … compared with lansoprazole” value with breast cancer cell lines is “lost their activity”.
For `NC(=O)c1cccc(N)c1` [3-ABA, 3-aminobenzamide], the “effect on M/FASN cell survival” value in the test with M/FASN cells (1 mM 3-ABA or 0.5 μM olaparib alone, 48 hours) was “no effect”. Also, the “doxorubicin resistance level of M/FASN cells” value in the test on M/FASN cells (pre-treated for 6 hours by 1 mM 3-ABA or 0.5 μM olaparib) was “significantly reduced”.
As to `Cc1c(OCC(F)(F)F)ccnc1CSc1nc2ccccc2[nH]1` [lansoprazole sulfide], the “activity … compared with lansoprazole” value in the test on breast cancer cell lines is “lost their activity”.
Take `COc1ccc2[nH]c([S+]([O-])Cc3ncc(C)c(OC)c3C)nc2n1` (stereo not shown) [tenatoprazole]: the “performance against breast cancer cell lines, compared with lansoprazole” value with breast cancer cell lines is reported as “performed better than lansoprazole only against some cell lines”.
For `Cc1c(OCC(F)(F)F)ccnc1CSc1nc2cc(O)ccc2[nH]1` [5-hydroxy lansoprazole sulfide], in the test with breast cancer cell lines (triple negative breast cancer cell lines), the “suppression of triple negative breast cancer cell survival, compared with lansoprazole” value is given as “significantly more effective than lansoprazole”. Also, in the test with PARP1 and γ-H2AX, the PARP1 expression result is “inhibited PARP1 expression” and the “production of γ-H2AX” value is given as “induced production of γ-H2AX in a dose-dependent manner”.
As usually defined, the IC50 is the point on the concentration scale where inhibition reaches its midpoint. Turning to `COc1ccc2[nH]c([S+]([O-])Cc3ncc(C)c(OC)c3C)nc2c1` (stereo not shown) [omeprazole], the half-inhibitory concentration (IC50) in the test with MCF7 cells (MCF7, read-out: IC50, cell survival, single agent, MCF7 cells, colony formation) was 3100 nM; with MCF7 cells (MCF7, read-out: IC50 of omeprazole in the presence of olaparib, in the presence of 0.1 μM olaparib, MCF-7 cells), 1000 nM; in the test with MCF7 cells (MCF7, read-out: IC50 of omeprazole in the presence of olaparib, in the presence of 0.3 μM olaparib, MCF-7 cells), 400 nM. In the test on breast cancer patients (setting [4]), the “HR (CoxPH ratio), overall survival” value worked out at 0.28. For the same compound, the results for the “HR, overall survival” value in the test with breast cancer patients (setting [7]) and in the test with breast cancer patients (setting [8]) were 0.33 and 0.27, respectively.
`COc1ccnc(C[S+]([O-])c2nc3ccc(OC(F)F)cc3[nH]2)c1OC` (stereo not shown) [pantoprazole]: the figures for the “HR (CoxPH ratio), overall survival” value in the test with breast cancer patients (setting [1]), in the test on breast cancer patients (setting [2]) and in the test on breast cancer patients (setting [4]) were 1.43, 1.11 and 0.32, respectively. In addition, the “HR, overall survival” value in the test with breast cancer patients (setting [5]) is given as 9.89*10^8; with breast cancer patients (setting [6]), 0.59; in the test on breast cancer patients (setting [7]) it was 0.59; in the test with breast cancer patients (setting [8]) it was 0.18; in the test with breast cancer patients (versus Omeprazole, AA patients) it was 1.85; in the test with breast cancer patients (versus Omeprazole, CA patients), 0.66.
Consider anaprazole, for which the “performance against breast cancer cell lines, compared with lansoprazole” value in the test with breast cancer cell lines is listed as “performed better than lansoprazole only against some cell lines”.
